Patent US20120053148A1, “INHIBITORS OF HEPATITIS C VIRUS” (GILEAD SCIENCES, INC., priority 2010, published 2012)

These compounds were tested on HCV Replicon IB (assay: HCV replicon assay in Huh-7 cells, genotype 1b (Rluc luciferase readout)). Details: HCV1B replicon, Huh-7 cells, 3 days; read-out: EC50_HCV1B_.
Assay type: cell-based, hepatitis C virus

Compound	EC50 [nM]
CC(C)(C)c1cc(C2CC2)cc2c(N)cc(-c3nnc(NC[C@@H]4CCCO4)o3)nc12 [Compound 359]	1.21

Same assay, conditions: Hepatitis C virus, 72 h; 10 uM; 1b-Rluc replicon, Huh-7 cells, 3 days; read-out: Inhibition @ 10 uM in 1b-Rluc

Compound	inhibition at 10 µM [%]
Cc1cc(-c2nnc(NCC3OCCO3)o2)nc2c(C(F)(F)F)cc(OCC(F)(F)F)cc12 [Compound 280]	99.9
O=C(NCc1ccccn1)c1cc(Cl)c2cc(OC(F)(F)F)cc(C(=O)O)c2n1 [Compound 241]	7.94
Cc1cc(C(=O)NCC2(NC(=O)OC(C)(C)C)CC2)nc2c(C(F)(F)F)cc(C3CC3)cc12 [Compound 87]	84.5
Cc1cc(-c2nnc(NCC(O)CO)s2)nc2c(C(F)(F)F)cc(C3CC3)cc12 (stereo not shown) [Compound 301]	99.6
Cc1cc(C(=O)NC/C=C/c2ccccc2)nc2c(C(F)(F)F)cc(-c3ccccc3)cc12 [Compound 170]	66.4
CCC(CNC(=O)c1cc(Cl)c2cc(OC(F)F)cc(C(F)(F)F)c2n1)=NOC [Compound 206]	64
CCCCOc1cc(C(F)(F)F)c2nc(C(=O)NCc3ccccn3)cc(C)c2c1 [Compound 183]	88.8
Cc1cc(-c2nnc(NCCCCO)o2)nc2c(C(F)(F)F)cc(C3CC3)cc12 [Compound 258]	100
O=C(NCc1ccccn1)c1cc(Cl)c2cc(OC(F)(F)F)cc(Br)c2n1 [Compound 236]	86.4
CC(C)(C)c1cc(C2CC2)cc2c(Cl)cc(C(=O)NCc3ccccn3)nc12 [Compound 229]	100
Cc1cc(C(=O)NCc2ccccn2)nc2c(C(F)(F)F)cc(C#CC(C)(C)C)cc12 [Compound 145]	72
COCCCNc1nnc(-c2cc(C)c3cc(C4CC4)cc(C(F)(F)F)c3n2)o1 [Compound 245]	100
COCCCNC(=O)CNC(=O)c1cc(C)c2cc(C3CC3)cc(C(F)(F)F)c2n1 [Compound 118]	84.5
Nc1cc(C(=O)NCc2cccc(F)n2)nc2c(C(F)(F)F)cc(OC(F)F)cc12 [Compound 195]	99.7
CCCCNc1nnc(-c2cc(C)c3cc(C4CC4)cc(C(F)(F)F)c3n2)o1 [Compound 244]	100
Cc1cc(C(=O)NCCNc2ccccn2)nc2c(C(F)(F)F)cc(C3CC3)cc12 [Compound 129]	94.9
Cc1cc(C(=O)NCc2ccccn2)nc2c(C(F)(F)F)cc(C3CCCC3)cc12 [Compound 150]	99
CC(C)(C)c1cc(C2CC2)cc2c(Cl)cc(C(=O)NCC3COCCN3)nc12 (stereo not shown) [Compound 228]	94.7
Cc1cc(C(=O)NCC2(O)CC2)nc2c(C(F)(F)F)cc(-c3ccccc3)cc12 [Compound 163]	98.3
CNCCCNC(=O)c1cc(C)c2cc(C3CC3)cc(C(F)(F)F)c2n1 [Compound 123]	96.7
Cc1cc(-c2nnc(NS(C)(=O)=O)s2)nc2c(C(F)(F)F)cc(C3CC3)cc12 [Compound 289]	70.7
COCCCNc1nnc(-c2cc(C)c3cc(C4CC4)cc(C(F)(F)F)c3n2)s1 [Compound 290]	99.9
Cc1cc(C(=O)NCC2CCCCN2)nc2c(C(F)(F)F)cc(C3CCCC3)cc12 (stereo not shown) [Compound 151]	99.6
CNc1cc(C(F)(F)F)c2nc(C(=O)NCc3ccccn3)cc(C)c2c1 [Compound 181]	99.4
Cc1cc(C(=O)NCC2(N)CC2)nc2c(C(F)(F)F)cc(C3CC3)cc12 [Compound 88]	95.6
O=C(NCc1ccccn1)c1cc(Cl)c2cc(C3CC3)cc(C(F)(F)F)c2n1 [Compound 210]	99.9
O=C(NCc1ccccn1)c1cc(O)c2cc(OC(F)(F)F)cc(-c3cccc4[nH]ncc34)c2n1 [Compound 239]	49.3
Cc1cc(-c2nnc(NCCC(C)(C)O)s2)nc2c(C(F)(F)F)cc(C3CC3)cc12 [Compound 295]	98.1
Cc1cc(C(=O)NCC#N)nc2c(C(F)(F)F)cc(-c3ccccc3)cc12 [Compound 105]	82.8
Cc1cc(C(=O)NCc2ccccn2)nc2c(C(F)(F)F)cc(C3OC3(C)C)cc12 (stereo not shown) [Compound 141]	94.8

Same assay, conditions: Hepatitis C virus, Huh-7, 72 h, HCV1B replicon, Huh-7 cells, 3 days; read-out: EC50_HCV1B_

Compound	EC50 [nM]
Cc1cc(-c2nnc(N[C@H]3C[C@](O)(CF)C3)o2)nc2c(C(C)(C)C)cc(OCC(F)F)cc12 [Compound 528]	0.41
Cc1cc(-c2nnc(N[C@H]3C[C@@](O)(CF)C3)o2)nc2c(C(C)(C)C)cc(OCC(F)(F)F)cc12 [Compound 517]	5.76
Nc1nnc(-c2cc(N)c3cc(C4CC4)cc(C(F)(F)F)c3n2)s1 [Compound 373]	65
Cc1cc(-c2nnc(N[C@H]3C[C@@](O)(CF)C3)o2)nc2c(C(C)(C)C)cc(C3CC3)cc12 [Compound 516]	7.15
Cc1cc(C(=O)NC[C@@H]2CC3(CCN2)OCCO3)nc2c(C(C)(C)C)cc(C3CC3)cc12 [Compound 428]	834
Cc1cc(-c2nnc(Nc3cn[nH]c3)o2)nc2c(C(C)(C)C)cc(C3CC3)cc12 [Compound 400]	75.5
Cc1cc(-c2nnc(N[C@H]3C[C@@H](O)C3)o2)nc2c(C(C)(C)C)cc(OCCF)cc12 [Compound 535]	2.54
CO[C@H]1CN[C@@H](CNC(=O)c2cc(N)c3cc(C4CC4)cc(C(C)(C)C)c3n2)C1 [Compound 327]	16.5
CO[C@@H]1CN[C@H](CNC(=O)c2cc(N)c3cc(C4CC4)cc(C(C)(C)C)c3n2)C1 [Compound 328]	15.9
Cc1cc(-c2nnc(NC3CC(O)C3)o2)nc2c(C(C)(C)C)cc(C3CC3)cc12 (stereo not shown) [Compound 420]	3.1
CC(C)(C)c1cc(C2CC2)cc2c(N)cc(-c3nnc(NCCCC(F)(F)F)o3)nc12 [Compound 356]	10.6
Cc1cc(-c2nnc(N)s2)nc2c(C(C)(C)C)cc(C3CC3)cc12 [Compound 379]	1100
Cc1cc(-c2nnc(N[C@H]3C[C@@](O)(CO)C3)o2)nc2c(C(C)(C)C)cc(C3CC3)cc12 [Compound 514]	11.2
Cc1cc(C(=O)Nc2cn[nH]c2)nc2c(OC(F)(F)F)cc(C3CC3)cc12 [Compound 439]	1160
Cc1cc(C(=O)NC[C@@H]2CC3(CN2)OCCO3)nc2c(C(C)(C)C)cc(OCC(F)(F)F)cc12 [Compound 510]	9.8
Cc1cc(-c2nnc(NCC[C@@H](C)O)o2)nc2c(C(C)(C)C)cc(OCC(F)(F)F)cc12 [Compound 455]	3.05
CC(C)(C)c1cc(C2CC2)cc2c(N)cc(-c3nnc(NCC(F)(F)CO)o3)nc12 [Compound 372]	1.95
CCCO[C@H]1CN[C@H](CNC(=O)c2cc(N)c3cc(C4CC4)cc(C(C)(C)C)c3n2)C1 [Compound 331]	243
CO[C@H]1CN[C@H](CNC(=O)c2cc(N)c3cc(C4CC4)cc(C(C)(C)C)c3n2)C1 [Compound 323]	7
CNC(=O)[C@@H]1CSC(c2cc(C)c3cc(OC(F)F)cc(C(F)(F)F)c3n2)=N1 [Compound 341]	3530
CCO[C@H]1CN[C@H](CNC(=O)c2cc(N)c3cc(C4CC4)cc(C(C)(C)C)c3n2)C1 [Compound 330]	19.8
Cc1nnc(-c2cc(OC(F)(F)F)cc3c(N)cc(C(=O)NCc4ccccn4)nc23)[nH]1 [Compound 339]	1230
CC(C)(C)c1cc(C2CC2)cc2c(N)cc(-c3nnc(NCC4OCCO4)o3)nc12 [Compound 342]	2.11
Cc1cc(-c2nnc(Nc3cccnc3)s2)nc2c(C(C)(C)C)cc(OCC(F)(F)F)cc12 [Compound 519]	21.1
